# Source: publication PMC11578313, “Miniaturized Modular Click Chemistry‐enabled Rapid Discovery of Unique SARS‐CoV‐2 M^pro Inhibitors With Robust Potency and Drug‐like Profile” (Advanced Science, 2024)
# Where two headings read alike, the source gives them in different places.
# Columns and labels:
# [1] = test system: Wild‐type rgSARS‐CoV‐2; assay: microbe, parasite or virus in culture; type: cell-based, SARS‐CoV‐2
# [2] = test system: rgSARS‐CoV‐2‐M^pro/T21I+E166V; type: cell-based, SARS‐CoV‐2; conditions: read-out: EC50 ± SD, rgSARS‐CoV‐2‐M^pro/T21I +E166V
# [3] = test system: rgSARS‐CoV‐2‐M^pro/L50F+E166V; type: cell-based, SARS‐CoV‐2; conditions: read-out: EC50 ± SD, rgSARS‐CoV‐2‐M^pro/L50F+E166V
# [4] = test system: SARS‐CoV‐2 (hCoV‐19/Korea/KCDC06/2020, wild type); assay: microbe, parasite or virus in culture; type: cell-based
# [5] = Severe acute respiratory syndrome coronavirus 2, Calu-3; read-out: EC50 ± SD, Wild‐type rgSARS‐CoV‐2
Compound,"EC50 [1, 5] [nM]",EC50 [2] [nM],EC50 [3] [nM],"EC50 ([4]; Severe acute respiratory syndrome coronavirus 2, Calu-3, Gamma, Delta, and Omicron, read-out: EC50 against several SARS‐CoV‐2 variants) [nM]","EC50 ([4]; Severe acute respiratory syndrome coronavirus 2, wild‐type, gamma, delta, and omicron, Calu‐3, read-out: EC50 against the original strain and its circulating variants) [nM]","EC50 ([1]; Severe acute respiratory syndrome coronavirus 2, Calu-3, read-out: EC50 ± SD, Wild‐type rgSARS‐CoV‐2) [nM]"
"Cc1cncc(C(=O)N2C[C@H]3CC[C@@H](C2)N3C(c2cccc(F)c2)c2cccc(F)c2)c1 [AA‐625, reference compound]",779 ± 173,3410 ± 821,5710 ± 664,,,
Cc1cncc(C(=O)N2C[C@H]3CC[C@@H](C2)N3[C@H](c2cccc(F)c2)c2cn(CCc3ccsc3)nn2)c1 [Compound C5N17B],< 46,260 ± 29,150 ± 19,130 to 260,119 to 260,
Cc1cncc(C(=O)N2C[C@H]3CC[C@@H](C2)N3C(c2cccc(F)c2)c2cn(CCc3ccsc3)nn2)c1 (some centres unmarked) [Compound C5N17],441 ± 32,1470 ± 123,966 ± 40,,,
"CC(C)(C)[C@H](NC(=O)C(F)(F)F)C(=O)N1C[C@H]2[C@@H]([C@H]1C(=O)N[C@H](C#N)C[C@@H]1CCNC1=O)C2(C)C [Nirmatrelvir, reference compound]",,> 100000,> 100000,,,2770 ± 33
